Legend:
Assay in all cases: Kinase profiling assay (Reaction Biology), 10-dose IC50, 10 μM ATP
Format in all cases: biochemical
JAK2 = molecular target: T1, JAK2 (Homo sapiens, UniProt O60674); details: NA = no activity
T1 construct: purchased Reaction Biology Corporation
Experimental: (§1) 310 and refinement were performed with COOT [14] and Phenix.Refine to obtain a clear electron
(§2) 311 density map (1Fo-Fc) for compound MA9-060, which was built into the structure near the end of
(§3) 312 iterative cycles of model building and refinement. Crystal parameters, data collection statistics and
(§4) 313 refinement statistics are summarized in Supplementary Fig. 4D and deposited in the protein
(§5) 314 databank with PDB code 8V1M.
(§6) 317 The compounds under investigation were tested by Reaction Biology Corporation against four
(§7) 318 specific kinases in this study (JAK2, ULK1, ULK2, ULK3). Each compound was provided as a
(§8) 319 10 mM stock solution. To facilitate dissolution, the compounds were subjected to gentle heating.
(§9) 320 Subsequent testing involved the evaluation of the compounds using a 10-dose IC50 mode,
(§10) Additionally, the control compound,
(§11) Throughout these experiments, reactions were conducted using a standardized concentration
(§12) 325 The data collected during these assays encompass raw data, % enzyme activity (relative to DMSO
(§13) 327 activities at the highest concentration of compounds were less than 65%. The IC50 summary,
(§14) 328 detailing the inhibitory concentrations of the compounds against the respective kinases, is
(§15) 331 Bromodomain profiling assay
(§16) 333 evaluated against Bromodomain 1 by Reaction Biology Corporation.
(§17) 334 The compounds were subjected to testing using a 10-dose IC50 singlet approach, involving a 3-
(§18) 335 fold serial dilution starting at 10 μM, specifically against BRD4-1. Additionally, as a benchmark,
(§19) 337 dilution starting at 10 μM.
(§20) 338 For ligand and detection purposes, the H4/4Ac ligand, representing the Histone H4 peptide (1-21)
(§21) 339 with acetylation at lysine residues K5, K8, K12, and K16, and tagged with Biotin, was utilized.

ULK1 = molecular target: T2, ULK1 (Homo sapiens, UniProt O75385)
T2 construct: purchased Reaction Biology Corporation
T2 sequence (O75385 1-1050): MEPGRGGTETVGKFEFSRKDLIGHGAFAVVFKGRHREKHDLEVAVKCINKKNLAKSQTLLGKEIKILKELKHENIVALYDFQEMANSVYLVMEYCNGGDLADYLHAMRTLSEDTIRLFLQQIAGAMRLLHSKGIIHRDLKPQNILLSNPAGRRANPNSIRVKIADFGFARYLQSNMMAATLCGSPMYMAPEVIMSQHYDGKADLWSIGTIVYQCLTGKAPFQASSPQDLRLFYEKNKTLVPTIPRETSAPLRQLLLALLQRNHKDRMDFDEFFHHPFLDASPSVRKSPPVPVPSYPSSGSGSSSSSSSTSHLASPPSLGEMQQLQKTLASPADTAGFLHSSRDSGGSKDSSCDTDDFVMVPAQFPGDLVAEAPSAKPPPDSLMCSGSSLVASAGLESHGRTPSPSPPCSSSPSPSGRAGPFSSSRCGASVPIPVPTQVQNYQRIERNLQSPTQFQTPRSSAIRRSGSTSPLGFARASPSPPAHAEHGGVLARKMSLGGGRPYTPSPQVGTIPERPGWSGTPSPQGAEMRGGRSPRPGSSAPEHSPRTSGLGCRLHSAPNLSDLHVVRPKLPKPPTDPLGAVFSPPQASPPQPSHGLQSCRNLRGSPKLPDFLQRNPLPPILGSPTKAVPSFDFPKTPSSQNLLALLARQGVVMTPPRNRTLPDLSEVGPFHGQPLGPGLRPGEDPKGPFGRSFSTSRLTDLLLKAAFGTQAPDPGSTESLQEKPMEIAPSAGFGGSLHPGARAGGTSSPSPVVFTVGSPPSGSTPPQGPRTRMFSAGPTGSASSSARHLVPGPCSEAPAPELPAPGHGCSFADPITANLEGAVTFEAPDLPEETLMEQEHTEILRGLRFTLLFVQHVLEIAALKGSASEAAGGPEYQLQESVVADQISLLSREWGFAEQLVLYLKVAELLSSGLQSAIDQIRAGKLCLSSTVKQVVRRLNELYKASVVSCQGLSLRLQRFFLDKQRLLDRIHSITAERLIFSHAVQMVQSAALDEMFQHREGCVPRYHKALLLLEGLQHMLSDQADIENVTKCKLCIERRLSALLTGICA
Experimental: as §1, §2, §3, §4, §5, §6, §7, §8, §9, §10, §11, §12, §13, §14, §15, §16, §17, §18, §19, §20, §21

ULK2 = molecular target: T3, ULK2 (Homo sapiens, UniProt Q8IYT8); details: NA = no activity
T3 construct: purchased Reaction Biology Corporation
T3 sequence (Q8IYT8 1-1036): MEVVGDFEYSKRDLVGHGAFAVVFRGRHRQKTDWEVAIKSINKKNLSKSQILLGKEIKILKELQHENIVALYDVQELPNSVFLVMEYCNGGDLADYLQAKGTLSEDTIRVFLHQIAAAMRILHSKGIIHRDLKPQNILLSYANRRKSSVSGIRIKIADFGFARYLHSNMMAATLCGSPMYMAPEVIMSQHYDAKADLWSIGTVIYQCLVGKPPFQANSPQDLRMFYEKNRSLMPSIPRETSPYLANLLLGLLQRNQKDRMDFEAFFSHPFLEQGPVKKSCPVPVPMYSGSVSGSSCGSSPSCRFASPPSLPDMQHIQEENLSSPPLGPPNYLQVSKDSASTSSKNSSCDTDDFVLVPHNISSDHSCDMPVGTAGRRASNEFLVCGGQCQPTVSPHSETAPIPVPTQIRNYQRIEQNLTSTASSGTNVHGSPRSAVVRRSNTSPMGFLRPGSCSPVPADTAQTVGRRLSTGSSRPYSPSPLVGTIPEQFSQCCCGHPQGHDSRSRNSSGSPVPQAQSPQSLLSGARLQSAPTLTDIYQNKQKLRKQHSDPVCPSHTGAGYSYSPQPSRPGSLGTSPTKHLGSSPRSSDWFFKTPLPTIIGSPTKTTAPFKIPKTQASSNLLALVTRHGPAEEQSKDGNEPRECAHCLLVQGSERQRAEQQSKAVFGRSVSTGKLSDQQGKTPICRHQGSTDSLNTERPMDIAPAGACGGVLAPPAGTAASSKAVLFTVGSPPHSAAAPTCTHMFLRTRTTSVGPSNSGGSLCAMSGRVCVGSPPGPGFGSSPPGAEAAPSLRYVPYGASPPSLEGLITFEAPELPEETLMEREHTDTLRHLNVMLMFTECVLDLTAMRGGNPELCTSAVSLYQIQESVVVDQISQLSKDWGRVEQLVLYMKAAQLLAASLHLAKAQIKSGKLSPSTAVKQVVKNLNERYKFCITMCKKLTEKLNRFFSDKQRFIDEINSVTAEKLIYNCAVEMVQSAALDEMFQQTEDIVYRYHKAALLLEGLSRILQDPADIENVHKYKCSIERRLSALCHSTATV
Experimental: as §1, §2, §3, §4, §5, §6, §7, §8, §9, §10, §11, §12, §13, §14, §15, §16, §17, §18, §19, §20, §21

T1 sequence (O60674 whole entry): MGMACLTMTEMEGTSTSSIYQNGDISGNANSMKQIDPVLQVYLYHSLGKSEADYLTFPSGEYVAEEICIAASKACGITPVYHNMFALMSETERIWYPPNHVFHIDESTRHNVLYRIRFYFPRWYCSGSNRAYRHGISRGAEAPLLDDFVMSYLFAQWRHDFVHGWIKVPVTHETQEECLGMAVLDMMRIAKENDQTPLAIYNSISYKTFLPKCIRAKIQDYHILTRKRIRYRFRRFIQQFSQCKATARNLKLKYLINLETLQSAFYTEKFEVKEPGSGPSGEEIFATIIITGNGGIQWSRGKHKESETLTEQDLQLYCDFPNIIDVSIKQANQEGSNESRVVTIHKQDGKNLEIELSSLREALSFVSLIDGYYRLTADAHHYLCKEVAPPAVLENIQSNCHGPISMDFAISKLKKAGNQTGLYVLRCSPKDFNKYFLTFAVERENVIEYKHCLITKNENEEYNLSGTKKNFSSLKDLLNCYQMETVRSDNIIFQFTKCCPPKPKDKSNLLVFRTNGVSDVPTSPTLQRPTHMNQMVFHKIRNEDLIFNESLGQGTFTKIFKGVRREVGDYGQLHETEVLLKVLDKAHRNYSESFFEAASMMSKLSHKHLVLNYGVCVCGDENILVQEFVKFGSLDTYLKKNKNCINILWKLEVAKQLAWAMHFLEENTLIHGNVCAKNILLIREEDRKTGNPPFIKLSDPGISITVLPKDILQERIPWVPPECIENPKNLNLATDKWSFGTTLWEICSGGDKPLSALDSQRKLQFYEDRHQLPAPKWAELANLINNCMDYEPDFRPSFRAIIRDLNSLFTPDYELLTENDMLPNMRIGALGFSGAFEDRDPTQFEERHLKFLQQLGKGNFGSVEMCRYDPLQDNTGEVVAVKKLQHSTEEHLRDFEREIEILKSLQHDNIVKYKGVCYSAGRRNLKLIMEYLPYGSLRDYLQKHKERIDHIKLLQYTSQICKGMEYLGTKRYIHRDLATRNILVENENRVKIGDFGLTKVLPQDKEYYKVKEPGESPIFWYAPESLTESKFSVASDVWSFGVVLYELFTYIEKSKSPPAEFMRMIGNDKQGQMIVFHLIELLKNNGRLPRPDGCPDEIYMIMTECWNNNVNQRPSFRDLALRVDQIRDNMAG

Cc1cnc(Nc2ccc(C3CCN(C)CC3)c(F)c2)nc1Nc1ccc(Cl)c(NS(=O)(=O)C(C)(C)C)c1 [MA9060] showed an IC50 (JAK2) of 6.7 nM, an IC50 (ULK1) of 1.71 µM and an IC50 (ULK2) of 4300 nM.

— PMC12363935, “Unc-51 Like Kinase 3 (ULK3) is essential for autophagy and cell survival in multiple myeloma” (Research Square, 2025)
